Source: ChEMBL document CHEMBL3045940, “In vivo peritoneal antiangiogenesis and in vitro antiproliferative properties of some bischalcone derivatives” (Med Chem Res, 2012)
Activity calls are given as the source filed them. The rule behind the calls is not given here.

Experiments:
HepG2 [1] = test: Antiproliferative activity against Homo sapiens (human) HepG2 cells after 48 hr by MTT assay; type: functional, cell-based; conditions: HepG2, 48 h
EAT [2] = test: Antitumor activity against Mus musculus (mouse) EAT cells xenografted in Mus musculus Swiss albino (mouse) assessed as decrease in tumor burden measured as reduction in body weight drug administered on day 7,9 and 11 after tumor transplantation; type: functional, cell-based
[3] = Antitumor activity against Mus musculus (mouse) EAT cells xenografted in Mus musculus Swiss albino (mouse) assessed as reduction in ascites volume drug administered on day 7,9 and 11 after tumor transplantation […]; type: functional
HepG2 [4] = test: Induction of apoptosis in Homo sapiens (human) HepG2 cells assessed as DNA fragmentation at 10 uM after 24 hr by agarose gel electrophoresis; type: functional, cell-based
EAT [5] = test: Antitumor activity against Mus musculus (mouse) EAT cells xenografted in Mus musculus Swiss albino (mouse) assessed as decrease in cell viability drug administered on day 7,9 and 11 after tumor transplantation; type: functional, cell-based
EAT [6] = test: Induction of apoptosis in Mus musculus (mouse) EAT cells xenografted in Mus musculus Swiss albino (mouse) assessed as appearance of condensed nuclei, membrane blebbing and formation of apoptotic bodies drug administered on day 7,9 and 11 after tumor transplantation by Giemsa, ethidium bromide/acridine orange staining analysis; type: functional, cell-based
EAT [7] = test: Induction of apoptosis in Mus musculus (mouse) EAT cells xenografted in Mus musculus Swiss albino (mouse) assessed as DNA fragmentation drug administered on day 7,9 and 11 after tumor transplantation by agarose gel electrophoresis; type: functional, cell-based
Mus musculus = test: Antiangiogenic activity in EAT cells xenografted in Mus musculus Swiss albino (mouse) assessed as reduction in vasculaization in peritoneal cavity drug administered on day 7,9 and 11 after tumor transplantation; type: functional, organism-based
HeLa = test: Antiproliferative activity against Homo sapiens (human) HeLa cells after 48 hr by MTT assay; type: functional, cell-based

IC50 (HepG2 [1]) [µM] | IC50 (HeLa) [µM] | Compound | inhibition (EAT [2]) | inhibition (INH) [3] [%] | Activity (HepG2 [4]) | inhibition (EAT [5]) | Activity (EAT [6]) | Activity (EAT [7]) | inhibition (Mus musculus)
106 | 110 | COc1ccc(/C=C2\CC/C(=C\c3ccc(OC)c(OC)c3)C2=O)cc1OC | Active | 70 | Active | Active | Active | Active | Active
44 | 42 | COc1cc(/C=C2\CC/C(=C\c3ccc(O)c(OC)c3)C2=O)ccc1O | Active | 70 | Active | Active | Active | Active | Active
48 | 39 | O=C1/C(=C/c2ccc(F)cc2)CC/C1=C\c1ccc(F)cc1 | Active | 70 | Active | Active | Active | Active | Active
